PMC9743095 (Journal of Medicinal Chemistry, 2022)
Where two headings read alike, the source gives them in different places.

Experiments:
BxPC-3 = assay: cells; assay type: cell-based; conditions: for MI%: BxPC-3, maximum inhibitory effect over concentration range; for CC50: Homo sapiens, BXPC-3, 72 h, read-out: LC50
Description: (§1) The assay was contracted and carried out by WuXi AppTec (Shanghai) Co., Ltd. The tumor cell lines CCRF-CEM, HL-60, KG-1, MOLT-4, K562, MV4-11, THP-1, HEL92.1.7, NCI-H929, RPMI-8226, Jurkat, Z138, RL, HS445, HepG2, MCF-7, Bx-PC-3, HT29, MIA PaCa-2, and SW620 were seeded at cell densities of […] 10^3 cells/well in a 96-well plate the day before drug incubation. Then, the plates were incubated for 72 h with the different concentrations of compound to be tested. After the incubation period, 50 μL of MTS was added and the tumor cells were incubated for 4 h at 37 °C. The data were read and collected by a Spectra Max 340 absorbance microplate reader. The compounds were tested in duplicate with nine serial concentrations (3.16-fold titrations with 198 μM as the highest concentration), and the data were analyzed by XLfit software.

CCRF-CEM = assay: cells; assay type: cell-based; conditions: Homo sapiens, 72 h; for CC50: read-out: LC50; for Emax: read-out: MI%
Description: as §1

HEL92.1.7 = assay: cells; assay type: cell-based; conditions: for MI%: HEL92.1.7, maximum inhibitory effect over concentration range; for CC50: Homo sapiens, HEL 92.1.7, 72 h, read-out: LC50
Description: as §1

HL-60 = assay: cells; assay type: cell-based; conditions: Homo sapiens; for CC50: read-out: LC50; for Emax: read-out: MI%
Description: as §1

HS445 = assay: cells; assay type: cell-based; conditions: for MI%: HS445, maximum inhibitory effect over concentration range; for CC50: Homo sapiens, Hs 445, 72 h, read-out: LC50
Description: as §1

HT29 = assay: cells; assay type: cell-based; conditions: for MI%: HT29, maximum inhibitory effect over concentration range; for CC50: Homo sapiens, HT-29, 72 h, read-out: lC50
Description: as §1

HepG2 = assay: cells; assay type: cell-based; conditions: Homo sapiens; for CC50: read-out: LC50; for Emax: read-out: MI%
Description: as §1

Jurkat = assay: cells; assay type: cell-based; conditions: Jurkat; for CC50: Homo sapiens, 72 h, read-out: LC50; for MI%: maximum inhibitory effect over concentration range
Description: as §1

K562 = assay: cells; assay type: cell-based; conditions: Homo sapiens; for CC50: read-out: LC50; for Emax: read-out: MI%
Description: as §1

KG-1 = assay: cells; assay type: cell-based; conditions: Homo sapiens, KG-1, 72 h, read-out: LC50
Description: as §1

MCF-7 = assay: cells; assay type: cell-based; conditions: Homo sapiens, MCF7, 72 h; for CC50: read-out: LC50; for Emax: read-out: MI%
Description: as §1

MIA PaCa-2 = assay: cells; assay type: cell-based; conditions: for CC50: Homo sapiens, MIA PaCa-2, 72 h, read-out: LC50; for MI%: MIA PaCa-2, maximum inhibitory effect over concentration range
Description: as §1

MOLT-4 = assay: cells; assay type: cell-based; conditions: Homo sapiens; for CC50: read-out: LC50; for Emax: read-out: MI%
Description: as §1

MV4-11 = assay: cells; assay type: cell-based; conditions: for CC50: Homo sapiens, MV4-11, 72 h, read-out: LC50; for MI%: MV4-11, maximum inhibitory effect over concentration range
Description: as §1

NCI-H929 = assay: cells; assay type: cell-based; conditions: for CC50: Homo sapiens, NCI-H929, 72 h, read-out: LC50; for MI%: NCI-H929, maximum inhibitory effect over concentration range
Description: as §1

RL = assay: cells; assay type: cell-based; conditions: for CC50: Homo sapiens, 72 h, read-out: LC50; for MI%: maximum inhibitory effect over concentration range
Description: as §1

RPMI-8226 = assay: cells; assay type: cell-based; conditions: for CC50: Homo sapiens, RPMI-8226, 72 h, read-out: LC50; for MI%: RPMI-8226, maximum inhibitory effect over concentration range
Description: as §1

SW620 = assay: cells; assay type: cell-based; conditions: for CC50: Homo sapiens, SW-620, 72 h, read-out: LC50; for MI%: SW620, maximum inhibitory effect over concentration range
Description: as §1

THP-1 = assay: cells; assay type: cell-based; conditions: for CC50: Homo sapiens, THP-1, 72 h, read-out: LC50; for MI%: THP-1, maximum inhibitory effect over concentration range
Description: as §1

Z138 = assay: cells; assay type: cell-based
Description: as §1

[1] = cited from earlier work

## C[C@H](N[P@](=O)(OC[C@@H]1C[C@@H](O)[C@H](n2cnc3c(N)ncnc32)O1)Oc1ccccc1)C(=O)OCc1ccccc1 [Sp-7a]
BxPC-3
  MI%: 73%
  CC50: 99 µM
CCRF-CEM
  CC50: 2.04 µM
  Emax: 97%
HEL92.1.7
  MI%: 100%
  CC50: 11 µM
HL-60; HL-60, 72 h
  CC50: 11 µM
  Emax: 92%
HS445
  MI%: 75%
  CC50: 67 µM
HT29
  MI%: 95%
  CC50: 25 µM
HepG2; HepG2, 72 h
  CC50: 57 µM
  Emax: 73%
Jurkat
  CC50: 2.29 µM
  MI%: 90%
K562; K562, 72 h
  CC50: 3 µM
  Emax: 96%
KG-1
  CC50: 18 µM
MCF-7
  CC50: 5.87 µM
  Emax: 94%
MIA PaCa-2
  CC50: 18 µM
  MI%: 94%
MOLT-4; MOLT-4, 72 h
  CC50: 0.43 µM
  Emax: 98%
MV4-11
  CC50: 1.03 µM
  MI%: 100%
NCI-H929
  CC50: 16 µM
  MI%: 94%
RL
  CC50: 2.64 µM
  MI%: 92.6%
RPMI-8226
  CC50: 19 µM
  MI%: 86.8%
SW620
  CC50: 35 µM
  MI%: 87%
THP-1
  CC50: 66 µM
  MI%: 69%

## C[C@H](NP(=O)(Oc1cccc2ccccc12)O[C@@H]1C[C@@H](COP(=O)(N[C@H](C)C(=O)OCc2ccccc2)Oc2cccc3ccccc23)O[C@H]1n1cnc2c(N)ncnc21)C(=O)OCc1ccccc1 (some centres unmarked) [Compound 5b]
CCRF-CEM
  CC50: 27.1 µM
  Emax: 99%
HL-60; HL-60, 72 h
  CC50: 78.6 µM
  Emax: 99%
HepG2; HepG2, 72 h
  CC50: 30.2 µM
  Emax: 90%
K562; K562, 72 h
  CC50: 25.4 µM
  Emax: 87%
KG-1
  CC50: 66.3 µM
MCF-7
  CC50: 5.05 µM
  Emax: 99%
MOLT-4; MOLT-4, 72 h
  CC50: 14.8 µM
  Emax: 100%

## CC(=O)O[C@H]1C(=O)[C@@]2(C)[C@H]([C@H](OC(=O)c3ccccc3)[C@]3(O)C[C@H](OC(=O)[C@H](O)[C@@H](NC(=O)c4ccccc4)c4ccccc4)C(C)=C1C3(C)C)[C@]1(OC(C)=O)CO[C@@H]1C[C@@H]2O [PTX, paclitaxel, reference compound]
BxPC-3
  MI%: 42%
  CC50: > 0.5 µM
CCRF-CEM; maximum inhibitory effect over concentration range
  Emax: 95%
CCRF-CEM
  CC50: 0.003 µM
HEL92.1.7
  MI%: 83%
  CC50: 0.02 µM
HL-60; 72 h, HL-60, maximum inhibitory effect over concentration range
  Emax: 96%
HL-60; HL-60, 72 h
  CC50: 0.004 µM
HS445
  MI%: 74%
  CC50: 0.01 µM
HT29
  MI%: 75%
  CC50: 0.004 µM
HepG2; 72 h, HepG2, maximum inhibitory effect over concentration range
  Emax: 54%
Jurkat
  CC50: 0.005 µM
  MI%: 97%
K562; 72 h, K562, maximum inhibitory effect over concentration range
  Emax: 94%
K562; K562, 72 h
  CC50: 0.008 µM
KG-1
  CC50: 0.07 µM
MCF-7
  CC50: 0.003 µM
MCF-7; MCF-7, maximum inhibitory effect over concentration range
  Emax: 79%
MIA PaCa-2
  CC50: 0.002 µM
  MI%: 87%
MOLT-4; 72 h, MOLT-4, maximum inhibitory effect over concentration range
  Emax: 97%
MOLT-4; MOLT-4, 72 h
  CC50: 0.002 µM
MV4-11
  CC50: 0.01 µM
  MI%: 99%
NCI-H929
  CC50: 0.003 µM
  MI%: 82%
RL
  CC50: 0.003 µM
  MI%: 83%
RPMI-8226
  CC50: 0.003 µM
  MI%: 91%
SW620
  CC50: 0.02 µM
  MI%: 96%
THP-1
  CC50: 0.03 µM
  MI%: 72%
Z138; Homo sapiens, Z-138, 72 h, read-out: LC50
  CC50: 0.002 µM
Z138; Z138, maximum inhibitory effect over concentration range
  MI%: 99%

## CC(C)OC(=O)[C@H](C)N[P@](=O)(CO[C@H](C)Cn1cnc2c(N)ncnc21)Oc1ccccc1 [TAF, Tenofovir Alafenamide]
[1]
  Sp isomer fold more active than the Rp isomer: 10 fold
